# Assay results taken from patent publication US20210070748A1, “INHIBITORS OF BRUTONS TYROSINE KINASE” (Pharmacyclics LLC, priority 2015, published 2021).
# Read-outs that look alike come from different tables or passages of the source.
# Legend:
# [1] = biological target: T1, ITK (Homo sapiens, UniProt Q08881); test: Inhibition of a panel of kinases, in vitro HotSpot kinase assay: ITK; type: biochemical
# T1 sequence (Q08881 1-620): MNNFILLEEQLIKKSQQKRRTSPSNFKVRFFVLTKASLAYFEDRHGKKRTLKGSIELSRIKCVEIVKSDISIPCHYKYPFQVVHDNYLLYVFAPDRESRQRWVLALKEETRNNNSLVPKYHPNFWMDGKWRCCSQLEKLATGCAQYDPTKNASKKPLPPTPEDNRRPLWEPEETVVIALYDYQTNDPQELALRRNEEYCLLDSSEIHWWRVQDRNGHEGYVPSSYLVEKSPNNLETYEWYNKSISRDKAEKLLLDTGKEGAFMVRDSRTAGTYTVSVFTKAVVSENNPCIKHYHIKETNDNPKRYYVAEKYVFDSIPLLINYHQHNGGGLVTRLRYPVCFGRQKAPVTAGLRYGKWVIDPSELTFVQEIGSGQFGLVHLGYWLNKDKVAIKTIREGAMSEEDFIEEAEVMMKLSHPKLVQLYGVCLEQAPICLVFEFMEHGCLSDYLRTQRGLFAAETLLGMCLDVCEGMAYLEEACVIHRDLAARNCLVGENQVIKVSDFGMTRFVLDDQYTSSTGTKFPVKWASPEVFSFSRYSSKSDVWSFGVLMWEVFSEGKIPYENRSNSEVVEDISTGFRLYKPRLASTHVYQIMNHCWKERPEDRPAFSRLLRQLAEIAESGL
# Protocol: The degree of inhibition of a panel of kinases is determined using the in vitro HotSpot kinase assay (purified enzymes, ^33P-ATP, an appropriate substrate and 1 μM ATP).
# [2] = biological target: T2, BTK-WT (Homo sapiens, UniProt Q06187); test: Btk in vitro inhibitory activity (one of Method A TR-FRET, Method B electrophoretic mobility shift, Method C radiometric filter binding); type: biochemical; details: read-out: IC50 BTK-WT
# T2 construct: purified from insect cells as a full-length construct containing an N-terminal 6X-His tag; His6 (N); made in house; host or cells: insect cells (baculovirus Sf21 in Method B)
# T2 sequence (Q06187 whole entry): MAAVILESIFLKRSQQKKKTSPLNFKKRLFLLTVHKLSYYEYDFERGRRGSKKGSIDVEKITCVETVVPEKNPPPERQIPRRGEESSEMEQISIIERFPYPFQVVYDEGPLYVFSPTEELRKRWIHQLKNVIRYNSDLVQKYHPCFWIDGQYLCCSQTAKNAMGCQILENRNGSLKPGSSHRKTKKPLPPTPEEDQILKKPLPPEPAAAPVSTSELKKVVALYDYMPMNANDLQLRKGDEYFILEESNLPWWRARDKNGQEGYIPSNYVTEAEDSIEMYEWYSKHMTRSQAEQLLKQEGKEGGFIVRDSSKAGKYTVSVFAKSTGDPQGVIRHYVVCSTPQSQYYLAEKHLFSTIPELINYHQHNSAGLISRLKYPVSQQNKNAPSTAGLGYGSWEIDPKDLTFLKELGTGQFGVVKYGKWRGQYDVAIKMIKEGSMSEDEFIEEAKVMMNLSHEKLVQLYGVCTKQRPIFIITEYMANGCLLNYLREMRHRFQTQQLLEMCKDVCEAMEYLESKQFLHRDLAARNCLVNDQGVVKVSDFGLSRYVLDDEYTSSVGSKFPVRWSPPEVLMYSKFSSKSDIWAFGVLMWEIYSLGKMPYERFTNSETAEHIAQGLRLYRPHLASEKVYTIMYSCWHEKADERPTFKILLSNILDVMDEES
# Protocol: Btk kinase activity is determined using a time-resolved fluorescence resonance energy transfer (TR-FRET) methodology. Measurements are performed in a reaction volume of 50 μL using 96-well assay plates. […] The reaction is quenched by the addition of 1.2 equivalents of EDTA (relative to divalent cation) in 25 μL of 1× Lance buffer (Perkin-Elmer). […] The TR-FRET signal is measured on a multimode plate reader with an excitation wavelength (λEx) of 330 nm and detection wavelengths (λEm) of 615 and 665 nm. Activity is determined by the ratio of the fluorescence at 665 nm to that at 615 nm. For each compound, enzyme activity is measured at various concentrations of compound. Negative control reactions are performed in the absence of inhibitor in replicates of six, and two no-enzyme controls are used to determine baseline fluorescence levels. Inhibition constants, Ki(app), were obtained using the program BatchKi(Kuzmic et al. (2000), Anal. Biochem. 286:45-50). IC50s are obtained according to the equation:
# IC50={Ki(app)/(1+[ATP]/Km^ATP)}+[E]total/2;
# Kinase activity is measured in vitro using electrophoretic mobility shift assay. The kinase reactions are assembled in a total volume of 25 μL in 384 well plates. […] The reaction is incubated for one hour and is quenched by the addition of 45 μL of termination buffer (100 mM HEPES, pH7.5, 0.01% Triton X-100, 30 mM EDTA). The terminated reactions are analyzed using 12 channel LabChip® 3000 microfluidic detection instrument (Caliper Life Sciences). […] Change in the relative fluorescence intensity of the substrate and product peaks is the parameter measured, reflecting enzyme activity. In the presence of an inhibitor, the ratio between product and substrate is altered: the signal of the product decreases, while the signal of the substrate increases.
# Activity in each sample is determined as the product to sum ratio (PSR): P/(S+P), where P is the peak height of the product peptide and S is the peak height of the substrate peptide. For each compound, enzyme activity is measured at various concentrations (12 concentrations of compound spaced by 3× dilution intervals). Negative control samples (0%-inhibition in the absence of inhibitor) and positive control samples (100%-inhibition, in the presence of 20 mM EDTA) are assembled in replicates of four and are used to calculate %-inhibition values for each inhibitor at each concentration. Percent inhibition (Pinh) is determined using following equation:
# Pinh=(PSR0%-PSRinh)/(PSR0%−PSR100%)*100, where PSRinh is the product sum ratio in the presence of inhibitor, PSR0% is the average product sum ration in the absence of inhibitor and PSR100% is the average product sum ratio in 100%-inhibition control samples;
# The IC50 values of inhibitors are determined by 4 parameter sigmoidal dose-response model fitting of the inhibition curves (Pinh versus inhibitor concentration) using XLfit 4 software.
# Human Btk kinase (Genbank accession # NP_000052) was purified from insect cells as a full-length construct containing an N-terminal 6X-His tag. Btk kinase activity was determined using a radiometric filter binding assay. Measurements are performed in a low μL reaction volume 384-well assay plates. […] IC50 values and curve fits were obtained using Prism (GraphPad Software).
# [3] = Table 15, C compounds, 1 μM ATP
SMILES,"IC50 ([1]; E compounds, Table 17)","IC50 ([2]; E compounds, Table 17)","IC50 [1, 3]","IC50 ([2]; Table 15, C compounds)"
"C=CC(=O)N1CCC[C@H](N(C)c2nnc(C(N)=O)c(Nc3ccc(C(C)C)cc3)n2)C1 [Example C-43, (S)-3-((1-acryloylpiperidin-3-yl)(methyl)amino)-5-(4-isopropylphenylamino)-1,2,4-triazine-6-carboxamide]",,,10 to 100 nM,≤ 10 nM
"C=CC(=O)N1CCC(C)(c2ccc(Nc3nc(N[C@@H]4CCCN(C(=O)C=C)C4)nnc3C(N)=O)cc2)CC1 [Example C-45, (R)-5-(4-(1-acryloyl-4-methylpiperidin-4-yl)phenylamino)-3-(1-acryloylpiperidin-3-ylamino)-1,2,4-triazine-6-carboxamide]",,,≤ 10 nM,≤ 10 nM
"C=CC(=O)N1CCCC[C@H](Nc2nnc(C(N)=O)c(Nc3ccc(C(C)C)cc3)n2)C1 [Example C-35, (S)-3-(1-acryloylazepan-3-ylamino)-5-(4-isopropylphenylamino)-1,2,4-triazine-6-carboxamide]",,,100 to 1000 nM,≤ 10 nM
"C=CC(=O)N1CCC[C@@H](N(C(=O)C=C)c2nnc(C(N)=O)c(Nc3ccc(C4CC4)cc3)n2)C1 [Example C-49, (R)-3-(N-(1-acryloylpiperidin-3-yl)acrylamido)-5-(4-cyclopropylphenyl-amino)-1,2,4-triazine-6-carboxamide]",,,1000 to 10000 nM,≤ 10 nM
"C=CC(=O)N1CCC[C@@H](Nc2nnc(C(N)=O)c(Nc3ccc(CN[C@@H](C)C(C)(C)C)cc3)n2)C1 [Example C-73, 3-((R)-1-acryloylpiperidin-3-ylamino)-5-(4-(((S)-3,3-dimethylbutan-2-ylamino)methyl)phenyl-amino)-1,2,4-triazine-6-carboxamide]",,,≤ 10 nM,≤ 10 nM
"C=CC(=O)N1CCC[C@@H](Nc2nnc(C(N)=O)c(Nc3ccc4c(c3)CCC(=O)N4C)n2)C1 [Example C-87, (R)-3-(1-acryloylpiperidin-3-ylamino)-5-(1-methyl-2-oxo-1,2,3,4-tetrahydroquinolin-6-ylamino)-1,2,4-triazine-6-carboxamide]",,,≤ 10 nM,≤ 10 nM
"C=CC(=O)N1CCC[C@H](Nc2nnc(C(N)=O)c(Nc3ccc(C(C)(C)C)cc3)n2)C1 [Example C-39, (S)-3-(1-acryloylpiperidin-3-ylamino)-5-(4-tert-butylphenylamino)-1,2,4-triazine-6-carboxamide]",,,10 to 100 nM,≤ 10 nM
"CCC(=O)N1CCC[C@@H](Nc2nnc(C(N)=O)c(Nc3ccc(C(C)(C)C)cc3)n2)C1 [Example C-46, (R)-5-(4-tert-butylphenylamino)-3-(1-propionylpiperidin-3-ylamino)-1,2,4-triazine-6-carboxamide]",,,100 to 1000 nM,≤ 10 nM
"C=CC(=O)N1CCC[C@@H](Nc2nnc(C(N)=O)c(Nc3cccc(-c4nccs4)c3)n2)C1 [Example C-86, (R)-3-(1-acryloylpiperidin-3-ylamino)-5-(3-(thiazol-2-yl)phenylamino)-1,2,4-triazine-6-carboxamide]",,,10 to 100 nM,≤ 10 nM

# More lines, now with the values ahead:
"IC50 ([1]; E compounds, Table 17)","IC50 ([2]; E compounds, Table 17)","IC50 [1, 3]","IC50 ([2]; Table 15, C compounds)",SMILES
100 to 1000 nM,≤ 10 nM,,,"C=CC(=O)N1CCC[C@H](Nc2cnc(C(N)=O)c(Nc3ccc(-c4ncccn4)cc3)n2)C1 [Example E-94, (S)-5-(1-acryloylpiperidin-3-ylamino)-3-(4-(pyrimidin-2-yl)phenylamino)pyrazine-2-carboxamide]"
10 to 100 nM,≤ 10 nM,,,"C=CC(=O)N1CCC[C@H](Nc2nnc(C(N)=O)c(Nc3ccc(C(C)(C)C)cc3)n2)C1 [Example E-23, (S)-3-(1-acryloylpiperidin-3-ylamino)-5-(4-tert-butylphenylamino)-1,2,4-triazine-6-carboxamide]"
100 to 1000 nM,10 to 100 nM,,,"C=CC(=O)N[C@H]1CCCN(c2nnc(C(N)=O)c(Nc3ccc(C(C)C)cc3)n2)C1 [Example E-22, (S)-3-(3-acrylamidopiperidin-1-yl)-5-(4-isopropylphenylamino)-1,2,4-triazine-6-carboxamide]"
100 to 1000 nM,≤ 10 nM,,,"C=CC(=O)N[C@H]1CCCC[C@@H]1Nc1nnc(C(N)=O)c(Nc2ccc(C(C)C)cc2)n1 [Example E-29, 3-((1S,2S)-2-acrylamidocyclohexyl-amino)-5-(4-isopropylphenylamino)-1,2,4-triazine-6-carboxamide]"
100 to 1000 nM,≤ 10 nM,,,"C=CC(=O)N[C@@H]1CCC[C@@H](Nc2nnc(C(N)=O)c(Nc3ccc(C(C)C)cc3)n2)C1 [Example E-58, 3-((1R,3R)-3-acrylamidocyclohexyl-amino)-5-(4-isopropylphenylamino)-1,2,4-triazine-6-carboxamide]"
≤ 10 nM,≤ 10 nM,,,"C=CC(=O)N1CCC[C@@H](Nc2nnc(C(N)=O)c(Nc3ccc4c(c3)CCC(=O)N4C)n2)C1 [Example E-71, (R)-3-(1-acryloylpiperidin-3-ylamino)-5-(1-methyl-2-oxo-1,2,3,4-tetrahydroquinolin-6-ylamino)-1,2,4-triazine-6-carboxamide]"
10 to 100 nM,≤ 10 nM,,,"C=CC(=O)N1CCC[C@@H](Nc2nnc(C(N)=O)c(Nc3ccc(-c4cnn(C(=O)C=C)c4)cc3)n2)C1 [Example E-60, (R)-5-(4-(1-acryloyl-1H-pyrazol-4-yl)phenylamino)-3-(1-acryloylpiperidin-3-ylamino)-1,2,4-triazine-6-carboxamide]"
≤ 10 nM,≤ 10 nM,,,"C=CC(=O)N1CCCC[C@@H](Nc2nnc(C(N)=O)c(Nc3ccc(C(C)C)cc3)n2)C1 [Example E-20, (R)-3-(1-acryloylazepan-3-ylamino)-5-(4-isopropylphenylamino)-1,2,4-triazine-6-carboxamide]"
≤ 10 nM,≤ 10 nM,,,"C=CC(=O)N1CCC[C@@H](Nc2nnc(C(N)=O)c(Nc3ccc(CN[C@@H](C)C(C)(C)C)cc3)n2)C1 [Example E-57, 3-((R)-1-acryloylpiperidin-3-ylamino)-5-(4-(((S)-3,3-dimethylbutan-2-ylamino)methyl)phenyl-amino)-1,2,4-triazine-6-carboxamide]"
100 to 1000 nM,≤ 10 nM,,,"C=CC(=O)N[C@H]1CCCC[C@H]1Nc1nnc(C(N)=O)c(Nc2ccc(C(C)C)cc2)n1 [Example E-25, 3-((1R,2S)-2-acrylamidocyclohexyl-amino)-5-(4-isopropylphenylamino)-1,2,4-triazine-6-carboxamide]"
1000 to 10000 nM,≤ 10 nM,,,"C=CC(=O)N1CCC[C@@H](N(C(=O)C=C)c2nnc(C(N)=O)c(Nc3ccc(C4CC4)cc3)n2)C1 [Example E-37, (R)-3-(N-(1-acryloylpiperidin-3-yl)acrylamido)-5-(4-cyclopropylphenyl-amino)-1,2,4-triazine-6-carboxamide]"
